Data on eight compounds can be found in PubChem BioAssay (NCI).

Some test systems named below: CAKI-1 renal; NCI-H522 lung; K-562 leukemia; A549 NSCLC; PC-3 prostate; HL-60(TB) leukemia; SK-MEL-2 melanoma; KM12 colon; M14 melanoma; T-47D breast; SF-539 CNS; HT29 colon; SF-295 CNS; HOP-62 NSCLC; HCT-15 colon; NCI/ADR-RES ovarian; BT-549 breast; NCI-H23 lung; HCC-2998 colon.
Holding throughout (assay): NCI-60 cell line screen, 48 h

Each structure is given as a SMILES string.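 Test compounds were applied to cells in 96-well plates for 48 hours at 5 doses. Definition used: TGI = concentration required for complete inhibition of growth.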

Regarding `COc1ccc(C2=NN(C(=O)c3cccnc3)C(O)(c3cc(F)c(Cl)cc3Cl)C2)cc1OC` (stereo unspecified), the TGI in the test with CAKI-1 renal is above 100 µM; with NCI-H522 lung, 34.9 µM; in the test on K-562 leukemia it was 69 µM; in the test on A549 NSCLC, above 100 µM; in the test with PC-3 prostate, 43.3 µM; with HL-60(TB) leukemia it was 40.9 µM. The TGI is 32 µM with SK-MEL-2 melanoma; above 100 µM with KM12 colon; 34.6 µM in the test on M14 melanoma; above 100 µM with T-47D breast; 33.5 µM in the test on SF-539 CNS; 34.9 µM in the test on HT29 colon. Besides, the TGI amounted to 39 µM with SF-295 CNS; 47.7 µM in the test on HOP-62 NSCLC; 35 µM in the test on HCT-15 colon; 49.9 µM with NCI/ADR-RES ovarian; 41.5 µM in the test with BT-549 breast; 71.7 µM with NCI-H23 lung.

Take `CC(=O)CCC[C@H](C)[C@@H](O)[C@@H]1O[C@H]([C@@]2(C)CCC(=O)O2)C[C@H]1C(=O)O`: the TGI with CAKI-1 renal, in the test on NCI-H522 lung, with K-562 leukemia, with A549 NSCLC, with PC-3 prostate and with SK-MEL-2 melanoma was above 100 µM in each case. In addition, the TGI in the test on KM12 colon, in the test with T-47D breast, with SF-539 CNS, in the test with HT29 colon, in the test with SF-295 CNS and in the test with HOP-62 NSCLC was above 100 µM throughout. The TGI in the test on HCT-15 colon, in the test with NCI/ADR-RES ovarian, with BT-549 breast, with HCC-2998 colon and with NCI-H23 lung was above 100 µM throughout.

Turning to `CC1c2cc(c3c(c2O)CN([C@@H](C)C2CCCCC2)CO3)C(C)c2cc(c3c(c2O)CN([C@@H](C)C2CCCCC2)CO3)C(C)c2cc(c3c(c2O)CN([C@@H](C)C2CCCCC2)CO3)C(C)c2cc1c1c(c2O)CN([C@@H](C)C2CCCCC2)CO1` (stereo partly specified), the TGI is 2.95 µM in the test on CAKI-1 renal; 1.58 µM in the test on NCI-H522 lung; 2.01 µM in the test on K-562 leukemia; above 100 µM in the test with A549 NSCLC; 5.59 µM in the test with HL-60(TB) leukemia; 6.2 µM in the test on SK-MEL-2 melanoma. For the same compound, the TGI was 2.15 µM with KM12 colon; above 23.7 µM in the test on M14 melanoma; 3.23 µM with T-47D breast; 1.26 µM in the test on HT29 colon; 2.92 µM in the test on HCT-15 colon; 2.67 µM in the test with NCI/ADR-RES ovarian. The TGI worked out at 3.49 µM in the test on BT-549 breast and 2.82 µM with HCC-2998 colon.

Consider `CC1C(O)Oc2cc3c(cc2C1c1ccccc1O)OCO3` (stereo unspecified), for which the TGI in the test on CAKI-1 renal was above 100 µM; in the test on NCI-H522 lung, 42.9 µM; with K-562 leukemia it was 46.5 µM; in the test on A549 NSCLC, above 100 µM; in the test on PC-3 prostate, 65.7 µM; in the test with HL-60(TB) leukemia, 36.7 µM. The TGI was 83.8 µM in the test with SK-MEL-2 melanoma; above 100 µM in the test with KM12 colon; above 100 µM with M14 melanoma; above 100 µM with T-47D breast; 79.2 µM in the test with SF-539 CNS; 66.6 µM in the test with HT29 colon. Also, the TGI was 65.5 µM in the test on SF-295 CNS; above 100 µM in the test on HOP-62 NSCLC; above 100 µM with HCT-15 colon; above 100 µM in the test with BT-549 breast; above 100 µM in the test on HCC-2998 colon; above 100 µM with NCI-H23 lung.

As to `O=c1[nH]c2cc([N+](=O)[O-])ccc2nc1/C=C(\O)c1ccc(Cl)cc1`, the TGI in the test with CAKI-1 renal was 33.1 µM; with K-562 leukemia, above 100 µM; with A549 NSCLC, 22.6 µM; in the test on PC-3 prostate, 32.5 µM; with HL-60(TB) leukemia it was 44.1 µM; in the test with SK-MEL-2 melanoma, 36.4 µM. For the same compound, the TGI was 40 µM with KM12 colon; 28.4 µM in the test on M14 melanoma; 30.8 µM with T-47D breast; 23.1 µM in the test with SF-539 CNS; 32.7 µM in the test with HT29 colon; 27.4 µM in the test on SF-295 CNS. Besides, the TGI was found to be 28.4 µM in the test with HCT-15 colon; 28.4 µM with NCI/ADR-RES ovarian; 19.1 µM in the test on BT-549 breast; 72.3 µM in the test on HCC-2998 colon; 29.4 µM with NCI-H23 lung.

For the compound `COc1cccc(C2c3cc4c(cc3OC(N3CCCCC3)C2C)OCO4)c1OC` (stereo unspecified), the TGI in the test with CAKI-1 renal was 11 µM; with NCI-H522 lung it was 29 µM; in the test on K-562 leukemia, 20.7 µM; with A549 NSCLC, 22.3 µM; with PC-3 prostate it was 42.8 µM; in the test on SK-MEL-2 melanoma, 26 µM. In addition, the TGI in the test on KM12 colon stood at 23.8 µM; in the test with M14 melanoma, 47.1 µM; with T-47D breast, 54.2 µM; in the test with SF-539 CNS it was 33.9 µM; in the test with HT29 colon, 19.8 µM; in the test with SF-295 CNS, 22.5 µM. Further, the TGI with HOP-62 NSCLC stood at 50.1 µM; in the test with HCT-15 colon it was 26.3 µM; with BT-549 breast, 57.4 µM; in the test with HCC-2998 colon, 33 µM; with NCI-H23 lung it was 71.3 µM.

`CCOC(=O)c1cc2cc(C)cc(C(=O)c3ccc([N+](=O)[O-])cc3)c2[nH]1`: the TGI with CAKI-1 renal, in the test with NCI-H522 lung, in the test with K-562 leukemia, in the test on A549 NSCLC, with PC-3 prostate and in the test with HL-60(TB) leukemia was above 100 µM in each case. Also, the TGI with SK-MEL-2 melanoma, in the test on KM12 colon, with M14 melanoma, with T-47D breast, in the test on SF-539 CNS and with HT29 colon was above 100 µM each time. The TGI with SF-295 CNS, in the test on HOP-62 NSCLC, in the test on HCT-15 colon, in the test with BT-549 breast, in the test with HCC-2998 colon and in the test with NCI-H23 lung was above 100 µM throughout.

For `O=C(c1ccccc1)C1C[C@H]2CO[C@H](c3ccccc3)N2C1=O` (stereo partly specified), the TGI in the test on CAKI-1 renal, with NCI-H522 lung, with K-562 leukemia, in the test with A549 NSCLC, in the test on PC-3 prostate and with SK-MEL-2 melanoma was above 100 µM each time. Also, the TGI with KM12 colon, in the test on M14 melanoma, with T-47D breast, in the test on SF-539 CNS, in the test on HT29 colon and with SF-295 CNS was above 100 µM each time. Besides, the TGI in the test with HCT-15 colon, with NCI/ADR-RES ovarian, in the test on BT-549 breast, with HCC-2998 colon and in the test on NCI-H23 lung was above 100 µM throughout.
